Data as given in patent US20260008818A1, “CYCLIC PEPTIDE OR SALT THEREOF, AND USES THEREOF” (FUJIFILM Corporation, priority 2023, published 2026).
Numbered stars: 1 amine (or outer) side, 2 acyl side, 3 side chain; on linkers, the order of the positions; unused ones are H or OH. Bridge positions count the residues as written; N and C are the ends. Ends that are not written are not given here. acetyl = K(acetyl): lysine side chain modified with a haloacetyl group whose halogen is replaced by the thiol of another residue, giving a thioether ring, O=C(C[*:1])[*:2]; COCH2 = acetyl group that carries the bridge

Test system: Recombinant Human FGFR1 alpha (IIIc) Fc Chimera Protein
Assay: Binding affinity of enzymatically synthesized cyclic peptide to FGFR by ELISA
Settings: luminescence signal at reaction concentration 10 nmol/L, SEQ ID NO: 39 standardized to 1, enzyme synthesis product
Experimental: The binding affinity of the cyclic peptide to FGFR was evaluated using an ELISA method.
The binding affinity of the enzymatically synthesized cyclic peptide to FGFR was measured by evaluating the amount of the cyclic peptide bound to FGFR by ELISA.
First, 5 ng of Recombinant Human FGFR1 alpha (IIIc) Fc Chimera Protein CF (R&D systems, 658-FR-050) was immobilized in each well of a 96-well plate, and blocked with Pierce Protein-Free (PBS) Blocking Buffer (Thermo, 37572), and a cyclic peptide diluted with Can Get Signal Immunoreaction Enhancer Solution I (TOYOBO, NKB-101) was then added and reacted at room temperature for 3 hours. After washing with 0.05% Tween 20-containing phosphate buffered saline (PBS), an anti-Myc antibody (Cell Signaling, 14038S) diluted with Can Get Signal Immunoreaction Enhancer Solution II (TOYOBO, NKB-101) was added and reacted at room temperature for 2 hours. After washing with 0.05% Tween 20-containing PBS, SuperSignal ELISA Femto Substrate (Thermo, 37075) was added, and the luminescence amount was measured. The dose-response relationship was calculated from using the difference between the luminescence amount in the well in which FGFR was immobilized and the luminescence amount in the well in which FGFR was not immobilized, and the concentration of the cyclic peptide at the time of reaction, and the binding affinity to FGFR was evaluated according to the following evaluation criteria. The evaluation result preferably satisfies the evaluation criteria A, B, or C.
In a case where a value of a luminescence signal emitted by the cyclic peptide set forth in SEQ ID NO: 39 at a reaction concentration of 10 nmol/L is standardized to 1, evaluation criteria of the luminescence signal value emitted by the cyclic peptide at a reaction concentration of 10 nmol/L is as follows. • A: 0.7 or more • B: 0.5 or more and less than 0.7 • C: 0.1 or more and less than 0.5 • D: less than 0.1.

| Substance | Evaluation result of binding affinity to FGFR |
| --- | --- |
| 66 (HCSYERLQFHGHEAPFRVK(COCH2)A; thioether 2-19 (inferred)) [compound 66] | A (0.7 or more) |
| 79 (DCSYERLQFHGHEAPFRVKV; not fully specified; Description of Artificial Sequence: Cyclic peptide) [compound 79] | A (0.7 or more) |
| 282 (TCQWEQLRIGPHLAPFRSK(COCH2)R; thioether 2-19 (inferred)) [compound 282] | C (0.1 or more and less than 0.5) |
| 265 (FCQFETLKFFGWEAPYLVK(COCH2)L; thioether 2-19 (inferred)) [compound 265] | C (0.1 or more and less than 0.5) |
| 144 (HCSYERHQFHGHEAPFRVK(COCH2)V; thioether 2-19 (inferred)) [compound 144] | A (0.7 or more) |
| 44 (FCPHIFLGHNAPFLVQK(COCH2)V; thioether 2-17 (inferred)) [compound 44] | A (0.7 or more) |
| 168 (HCSYERLQFYGHEAPFRVK(COCH2)V; thioether 2-19 (inferred)) [compound 168] | A (0.7 or more) |
| 281 (FCTIQQLILVNHRAPFWVK(COCH2)T; thioether 2-19 (inferred)) [compound 281] | B (0.5 or more and less than 0.7) |
| 346 (ACWLRHIYQGHQAPFLIWSTK(COCH2)S; thioether 2-21) [compound 346] | C (0.1 or more and less than 0.5) |
| 350 (LCSITRIQLFGYHAPFWHVVK(COCH2)S; thioether 2-21) [compound 350] | C (0.1 or more and less than 0.5) |
| 75 (NCSYERLQFHGHEAPFRVK(COCH2)V; thioether 2-19 (inferred)) [compound 75] | A (0.7 or more) |
| 216 (HCSYERLQFHGHEAPFRVK(COCH2)N; thioether 2-19 via Ac; not fully specified) [compound 216] | A (0.7 or more) |
| 267 (ACRWAQLQFLSWGAPFLVK(COCH2)T; thioether 2-19 (inferred)) [compound 267] | C (0.1 or more and less than 0.5) |
| 87 (HCFYERLQFHGHEAPFRVKV; not fully specified; Description of Artificial Sequence: Cyclic peptide) [compound 87] | A (0.7 or more) |
| 318 (HCTWERLIFRGHIAPFWVK(COCH2)R; thioether 2-19 (inferred)) [compound 318] | C (0.1 or more and less than 0.5) |
| 255 (RCWRQIRYGQLLAPFLVK(COCH2)Q; thioether 2-18 (inferred)) [compound 255] | C (0.1 or more and less than 0.5) |
| 238 (HK(COCH2)TWERLIFLGHVAPFWVCR; thioether 2-19 (inferred)) [compound 238] | B (0.5 or more and less than 0.7) |
| 325 (HCTWERLIFLGHIAPFWVK(COCH2)S; thioether 2-19 (inferred)) [compound 325] | B (0.5 or more and less than 0.7) |
| 229 (HK(COCH2)VWERLIFLGHIAPFWVCR; thioether 2-19 (inferred)) [compound 229] | B (0.5 or more and less than 0.7) |

| Substance | Evaluation result of binding affinity to FGFR |
| --- | --- |
| 147 (HCSYERLIFHGHEAPFRVK(COCH2)V; thioether 2-19 (inferred)) [compound 147] | A (0.7 or more) |
| 248 (QCWKRVRVYGFFAPFVHK(COCH2)I; thioether 2-18 (inferred)) [compound 248] | B (0.5 or more and less than 0.7) |
| 353 (PCVQQISPHPWGAPFWVVTSK(COCH2)Y; thioether 2-21) [compound 353] | B (0.5 or more and less than 0.7) |
| 172 (HCSYERLQFSGHEAPFRVK(COCH2)V; thioether 2-19 (inferred)) [compound 172] | B (0.5 or more and less than 0.7) |
| 128 (HCSYNRLQFHGHEAPFRVK(COCH2)V; thioether 2-19 (inferred)) [compound 128] | B (0.5 or more and less than 0.7) |
| 309 (HCSYERLQFHGHEAPFRVK(COCH2)M; thioether 2-19 (inferred)) [compound 309] | A (0.7 or more) |
| 310 (YCTWERLIFLGHIAPFWVK(COCH2)R; thioether 2-19 (inferred)) [compound 310] | C (0.1 or more and less than 0.5) |
| 279 (YCTIQRLWLLHEAPFWVK(COCH2)T; thioether 2-18 (inferred)) [compound 279] | C (0.1 or more and less than 0.5) |
| 369 (HASYERCIFHGHEAPFWVK(COCH2)V; thioether 7-19) [compound 369] | C (0.1 or more and less than 0.5) |
| 91 (HCQYERLQFHGHEAPFRVK(COCH2)V; thioether 2-19 via acetyl; not fully specified; printed as H-(C)-QYERLQFHGHEAPFRV-(K(acetyl))-V) [compound 91] | A (0.7 or more) |
| 371 (CERLIFHGHEAPFWVK(COCH2)V; thioether 1-16) [compound 371] | A (0.7 or more) |
| 308 (HCSYERLQFHGHEAPFRMK(COCH2)V; thioether 2-19 (inferred)) [compound 308] | C (0.1 or more and less than 0.5) |
| 62 (HCSYERLQFHGHAAPFRVK(COCH2)V; thioether 2-19 (inferred)) [compound 62] | A (0.7 or more) |
| 85 (HCIYERLQFHGHEAPFRVKV; not fully specified; Description of Artificial Sequence: Cyclic peptide) [compound 85] | A (0.7 or more) |
| 179 (HCSYERLQFHGHIAPFRVK(COCH2)V; thioether 2-19 (inferred)) [compound 179] | A (0.7 or more) |
| 304 (HCSYERLQFHMHEAPFRVK(COCH2)V; thioether 2-19 (inferred)) [compound 304] | C (0.1 or more and less than 0.5) |
| 315 (HCTYERLIFLGHIAPFWVK(COCH2)R; thioether 2-19 (inferred)) [compound 315] | C (0.1 or more and less than 0.5) |
| 241 (HK(COCH2)TWERLIFLGHIAPFWVCV; thioether 2-19 (inferred)) [compound 241] | B (0.5 or more and less than 0.7) |
| 205 (HCSYERLQFHGHEAPFRYK(COCH2)V; thioether 2-19 via Ac; not fully specified) [compound 205] | B (0.5 or more and less than 0.7) |
